# Columns and labels:
# [1] = system: Bel7402: a human liver cancer cell line; experiment: MTT analytical method, Bel7402 cells; assay type: cell-based; conditions: Bel-7402, 72 h
# Text: (§1) MTT analytical method was used to test the prodrugs for various tumor cells.
# (§2) • 1) Cell lines: NCI-H460, A549, LOVO, HT-29, MDA-MB-231, SGC7901, HepG2 or BEL-7402 cell lines. Culture: adherent culturing in D-MEM (Hyclone, Inc.) containing 10% fetal calf serum. The initial cell concentration was about 3×10^5 /mL. The cell was passaged by 1:3 dilution in every 2-3 days. On the day before the test, the cell was passaged by 1:2 dilution, the cell concentration for the test was 5-10×10^5 /mL. • 2) Dissolution and dilution of compounds: according to the weight and molecular weight of the drugs provided, 100-200 μL of DMSO was added. Then normal saline was added to make the final diluted concentration of the drugs be 5 mM (Note that the final concentration of DMSO should not be more than 10%). • 3) D-MEM or RPMI 1640 cell culture medium, Gibco, Inc. • 4) Fetal calf serum Hyclone, Inc. • 5) Cell dissociation buffer, 0.25% Trypsin+0.02% EDTA. • 6) MTT solution, MTT Powder (Sigma) were dissolved in PBS buffer solution to make a solution of 5 mg/mL. The solution was filtered by a 0.22 μm micropore membrane and stored at −20° C. • 7) PBS buffer solution. • 8) 10% acidified SDS, 0.01N HCl. • 9) Centrifuge tubes, haustorial tubes etc. (BD, Inc.); 96-well plates (Costatr, Inc.) Procedures: • 1) Cell inoculation: Cells grown for 24 hours after passage, which cells were in good growth state, were used. The cells were harvested by the routine method. The cell concentration was adjust with a fresh culture solution to 2×10^5/mL (for adherent cells)-3×10^5/mL (for suspension cells). The adherent cells were inoculated at 100 μL/well and then cultivated in an incubator with 5% CO2 at 37° C. for 24 h. Thereafter the used culture solution was removed and 95 μL/well of fresh culture solution was added. The suspension cells were inoculated at 95 μL/well directly. • 2) Drugs treatment: 9 concentration grades were designed for every drug, and every concentration had 3 wells. The control group had 5 wells. The control group was tested simultaneously in each test. The final concentrations of a drug added were […], and 5 μL normal saline was added to the control group. • 3) Cell culture and detection: the cells were cultured in an incubator with 5% CO2 at 37° C. for 72 h after the drug was added, then 10 μL MTT was added to each well and the culture was continued for 4 h. 100 μL of 10% SDS (containing 0.01N HCl) was added to each well. After 24 h, the absorbance (A) of each well was determined by Bio-rad 680 ELISA with the detection wavelength of 570 nm and the reference wavelength of 630 nm. Calculation:
# (§3) First, the absorbance (A) of each well was averaged (removing any data with big difference). […] A0 was the mean absorbance of the control wells. The effect curve of the drug concentration was drawn using EXCEL software and the drug concentration for 50% cell survival was calculated according to an appropriate computing methods.
# [2] = system: HT29: a human colon cancer cell line; experiment: MTT analytical method, HT29 cells; assay type: cell-based; conditions: HT-29, 72 h
# Text: as §1, §2, §3
# [3] = system: A549: a human lung cancer cell line; experiment: MTT analytical method, A549 cells; assay type: cell-based; conditions: 72 h
# Text: as §1, §2, §3
# [4] = system: H460 cells, a human lung cancer cell line, inoculated in nude mice; experiment: H460 tumor in nude mice, oral administration of SL-01; assay type: in vivo, Balb/c female nude mice; conditions: for Mean Volume of Tumor: Ftorafur 120 mg/kg gastric gavage
# Protocol: 1. […] Suspension formulation was prepared using 2.5% starch for intragastric administration. […] In the test, it was dissolved in normal saline and filtered with microfiltration membrane and administrated by tail vein injection. Positive control drug: Ftorafur (FT-207) produced by Qilu Pharmaceutical Co. Ltd., oral formulation.
# 2. Experimental animals: 50 Balb/c female nude mice at 4-5 weeks old, purchased from Peking University Health Science Center.
# 1. Culture of tumor cells: H460 cells were cultured in an incubator with 5% CO2 at 37° C. using RPMI-1640 nutrient solution containing 10% fetal calf serum. The cells were passaged through routine method.
# 2.2 Method of inoculating tumor cells in nude mice: cells were collected when they grew to about […] in culture flasks. Cells were washed twice with PBS before they were digested, then 1.5 mL of digestion solution juices was added into every bottle. They were observed under a microscope and the digestion was terminated after the cells were shed. Cell suspension was collected into 50 mL of centrifugal tube and centrifuged and washed twice with PBS. It was counted and suspended with 10 mL of normal saline to get the tumor cell suspension of inoculated nude mice. The tumor cells (1×10^7/0.2 mL) were inoculated in the left front armpits of mice. The tumor growth was observed after the inoculation.
# 4. Evaluation protocols for drug treating effect: these mice were weighed before drug administration and every week thereafter. The long tumor pathline (a) and the short tumor pathline (b) were measured at the same time. The formula for calculating the tumor volume is V=(a×b^2)/2. Mice were euthanized after drug administration for 3 weeks. The tumor was taken out and weighed. […] W was the tumor weight of the treatment group.
SMILES,IC50 [1],IC50 [2],IC50 [3],other results
"CCCCCCCCCCCCOC(=O)c1ccccc1C(=O)Nc1ccn([C@@H]2O[C@H](CO)[C@@H](O)C2(F)F)c(=O)n1 [Compound 1, Dodecyl-2-((1-((2R,4R,5R)-3,3-difluoro-4-hydroxy-5-(hydroxymethyl)-tetrahydrofuran-2-yl)-2-oxo-1,2-dihydropyrimidin-4-yl)carbamoyl)benzoate]",20 µM,13 µM,23 µM,
"CCCCCCCCCCCOC(=O)c1ccccc1C(=O)Nc1ccn([C@@H]2O[C@H](CO)[C@@H](O)C2(F)F)c(=O)n1 [Compound 2, Undecyl-2-((1-((2R,4R,5R)-3,3-difluoro-4-hydroxy-5-(hydroxymethyl)-tetrahydrofuran-2-yl)-2-oxo-1,2-dihydropyrimidin-4-yl)carbamoyl)benzoate]",162 µM,> 200 µM,,
"CCCCCCCCCCCCCCCCOC(=O)c1ccccc1C(=O)Nc1ccn([C@@H]2O[C@H](CO)[C@@H](O)C2(F)F)c(=O)n1 [Compound 3, Hexadecyl-2-((1-((2R,4R,5R)-3,3-difluoro-4-hydroxy-5-(hydroxymethyl)-tetrahydrofuran-2-yl)-2-oxo-1,2-dihydropyrimidin-4-yl)carbamoyl)benzoate]",60 µM,10 µM,,
"CCCCCCCCCCOC(=O)c1cccc(C(=O)Nc2ccn([C@@H]3O[C@H](CO)[C@@H](O)C3(F)F)c(=O)n2)c1 [Compound 6, Decyl-3-((1-((2R,4R,5R)-3,3-difluoro-4-hydroxy-5-(hydroxymethyl)-tetrahydrofuran-2-yl)-2-oxo-1,2-dihydropyrimidin-4-yl)carbamoyl)benzoate]",30 µM,13 µM,,
"CCCCCCCCCCCOC(=O)c1cccc(C(=O)Nc2ccn([C@@H]3O[C@H](CO)[C@@H](O)C3(F)F)c(=O)n2)c1 [Compound 7, Undecyl-3-((1-((2R,4R,5R)-3,3-difluoro-4-hydroxy-5-(hydroxymethyl)-tetrahydrofuran-2-yl)-2-oxo-1,2-dihydropyrimidin-4-yl)carbamoyl)benzoate]",125 µM,80 µM,,
"CCCCCCCCCCCOC(=O)c1ccc(C(=O)Nc2ccn([C@@H]3O[C@H](CO)[C@@H](O)C3(F)F)c(=O)n2)nc1 [Compound 10, Undecyl-6-((1-((2R,4R,5R)-3,3-difluoro-4-hydroxy-5-(hydroxymethyl)-tetrahydrofuran-2-yl)-2-oxo-1,2-dihydropyrimidin-4-yl)carbamoyl)nicotinate]",30 µM,4 µM,13 µM,
"CCCCCCCCCCCOC(=O)c1ccc(C(=O)Nc2ccn([C@@H]3O[C@H](CO)[C@@H](O)C3(F)F)c(=O)n2)cn1 [Compound 11, Undecyl-5-((1-((2R,4R,5R)-3,3-difluoro-4-hydroxy-5-(hydroxymethyl)-tetrahydrofuran-2-yl)-2-oxo-1,2-dihydropyrimidin-4-yl)carbamoyl)picolinate]",4 µM,< 2 µM,3 µM,
"CCCCCCCCCCCCOC(=O)c1ncccc1C(=O)Nc1ccn([C@@H]2O[C@H](CO)[C@@H](O)C2(F)F)c(=O)n1 [Compound 12, Dodecyl-3-((1-((2R,4R,5R)-3,3-difluoro-4-hydroxy-5-(hydroxymethyl)-tetrahydrofuran-2-yl)-2-oxo-1,2-dihydropyrimidin-4-yl)carbamoyl)picolinate]",60 µM,20 µM,,
"CCCCCCCCCCCOC(=O)c1cccnc1C(=O)Nc1ccn([C@@H]2O[C@H](CO)[C@@H](O)C2(F)F)c(=O)n1 [Compound 14, Undecyl-2-((1-((2R,4R,5R)-3,3-difluoro-4-hydroxy-5-(hydroxymethyl)-tetrahydrofuran-2-yl)-2-oxo-1,2-dihydropyrimidin-4-yl)carbamoyl)nicotinate]",> 200 µM,35 µM,140 µM,
"CCCCCCCCCCCCOC(=O)c1cccc(C(=O)Nc2ccn([C@@H]3O[C@H](CO)[C@@H](O)C3(F)F)c(=O)n2)n1 [Compound 18, Dodecyl-6-((1-((2R,4R,5R)-3,3-difluoro-4-hydroxy-5-(hydroxymethyl)-tetrahydrofuran-2-yl)-2-oxo-1,2-dihydropyrimidin-4-yl)carbamoyl)picolinate]",16 µM,7 µM,15 µM,
"O=c1[nH]c(=O)n(C2CCCO2)cc1F (stereo not drawn) [FT-207, Ftorafur, reference compound]",,,,"Mean Volume of Tumor ([4]; day 7): 756.7 mm^3; Mean Volume of Tumor ([4]; day 14): 1347.0 mm^3; Mean Volume of Tumor ([4]; day 18): 1526.3 mm^3; Mean Volume of Tumor ([4]; day 22): 1779.4 mm^3; Inhibition ratio (tumor weight) ([4]; Positive control (Ftorafur 120 mg/kg gavage)): 38.5%; Mean Weight of Nude Mice ([4]; Positive control (Ftorafur 120 mg/kg gavage), day 0): 19.3 g; Mean Weight of Nude Mice ([4]; Positive control (Ftorafur 120 mg/kg gavage), day 7): 19.5 g; Mean Weight of Nude Mice ([4]; Positive control (Ftorafur 120 mg/kg gavage), day 14): 19.8 g; Mean Weight of Nude Mice ([4]; Positive control (Ftorafur 120 mg/kg gavage), day 22): 19.7 g; Tumor Weight, Average Value ([4]; Positive control (Ftorafur 120 mg/kg gavage), end of the experiment): 1.26 g; efficacy by t-test, in words ([4]; positive control group (Ftorafur 120 mg/kg gavage)): significant efficacy"

# Further lines, with some results ahead:
IC50 [1],IC50 [2],IC50 [3],SMILES,other results
46 µM,25 µM,,"CCCCCCCCCCCOC(=O)c1cccc(C(=O)Nc2ccn([C@@H]3O[C@H](CO)[C@@H](O)C3(F)F)c(=O)n2)n1 [Compound 19, Undecyl-6-((1-((2R,4R,5R)-3,3-difluoro-4-hydroxy-5-(hydroxymethyl)-tetrahydrofuran-2-yl)-2-oxo-1,2-dihydropyrimidin-4-yl)carbamoyl)picolinate]",
14 µM,6 µM,13 µM,"CCCCCCCCCCCCOC(=O)c1ccc(C(=O)Nc2ccn([C@@H]3O[C@H](CO)[C@@H](O)C3(F)F)c(=O)n2)s1 [Compound 20, Dodecyl-5-((1-((2R,4R,5R)-3,3-difluoro-4-hydroxy-5-(hydroxymethyl)-tetrahydrofuran-2-yl)-2-oxo-1,2-dihydropyrimidin-4-yl)carbamoyl)thiophene-2-carboxylate]",
43 µM,24 µM,,"CCCCCCCCCCCOC(=O)c1ccc(C(=O)Nc2ccn([C@@H]3O[C@H](CO)[C@@H](O)C3(F)F)c(=O)n2)s1 [Compound 21, Undecyl-5-((1-((2R,4R,5R)-3,3-difluoro-4-hydroxy-5-(hydroxymethyl)-tetrahydrofuran-2-yl)-2-oxo-1,2-dihydropyrimidin-4-yl)carbamoyl)thiophene-2-carboxylate]",
> 200 µM,> 200 µM,,"CCCCCCCCCCCOC(=O)C1CCCCC1C(=O)Nc1ccn([C@@H]2O[C@H](CO)[C@@H](O)C2(F)F)c(=O)n1 (stereo partly drawn) [Compound 36, Undecyl-2-((1-((2R,4R,5R)-3,3-difluoro-4-hydroxy-5-(hydroxymethyl)-tetrahydrofuran-2-yl)-2-oxo-1,2-dihydropyrimidin-4-yl)carbamoyl)cyclohexanecarboxylate]",

# Source: patent US8653048B2 (Sanlugen Pharmatech Ltd., priority 2009, dated 2014)
